Experimental data: PubChem BioAssay AID1963971 (Molecular Pharmacology Branch, DTP, NCI, 2024)

System: 953936-095-R-J2-PDC spheroids with HUVEC/MSC, viability
Test: Anticancer human tumor 953936-095-R-J2-PDC patient-derived cervical squamous cell carcinoma cell line growth inhibition [PI3K]
Details: for IC50: curve of first compound; for viability, T/C: stronger effect = lower value
Source text: Combinatorial screen of targeted agents with the PI3K inhibitors inavolisib, alpelisib, duvelisib, and copanlisib in multi-cell type tumor spheroids
A high-throughput screen of multi-cell type tumor spheroids was designed to identify active combinations of targeted small molecules and PI3K pathway inhibitors. Complex spheroids include a stromal component modeled by human endothelial cells (HUVEC) and fibroblasts modeled by human mesenchymal stem cells (MSCs). The concentration ranges selected for each drug and investigational agent were based upon clinically achievable concentrations if the clinical Cmax of the agent was known.
Compounds. The drugs and investigational agents: inavolisib (NSC800729), alpelisib (NSC765974), duvelisib (NSC772469), copanlisib (NSC816437), ipatasertib (NSC767898), afuresertib (NSC778305), talazoparib (NSC767125), sapanisertib (NSC764658), selumetinib (NSC741078), tovorafenib (DAY101, NSC766906), vemurafenib (NSC761431), ravoxertinib (NSC781343), sotorasib (NSC818433), MRTX1133 (NSC 836407), abemaciclib (NSC 768073), palbociclib (NSC758247), venetoclax (NSC 766270), SY5609 (NSC837396), enzalutamide (NSC755605), and darolutamide (NSC825331), were obtained from the National Cancer Institute (NCI) Developmental Therapeutics Program Chemical Repository. The FDA-approved anticancer drug set is available from the NCI Developmental Therapeutics Program. […] The stock solutions were prepared in dimethyl sulfoxide (DMSO, Sigma-Aldrich, St. Louis, MO, cat. D2650) at 800-fold the tested concentration and stored at -70 degrees C prior to their use. All drugs and investigational agents were tested over a range starting from a high concentration at or near the clinical Cmax and decreasing in half-log increments. If the clinical Cmax for an agent had not been determined, the highest concentration tested was 10 microM.
Cell Culture. All cells were maintained in an incubator at 37 degrees C and 5% CO2 with 95% humidity. The PDC lines were cultured according to standard operating procedures established by the NCI PDMR (https://pdmr.cancer.gov/sops/default.htm). All PDCs were thawed and cultured in Matrigel-coated flasks prepared with a working solution of 1X Ham's F-12 nutrient mix, without supplementation (Invitrogen, Waltham, MA, cat. 11765054), 100 U/mL penicillin-streptomycin (Invitrogen, cat. 15140122), and 2.5% Matrigel (Corning Inc., Corning, NY, cat. 354248) for the first three passages. The 354836-022-R-J1-PDC, 475296-252-R-J1-PDC, and 997726-040-R-J2-PDC lines were cultured in 6A media, which includes advanced DMEM/F-12 (Thermo Fisher Scientific, cat. 12634028), 10 mM HEPES (Thermo Fisher Scientific, cat. 15630080), 1X GlutaMAX supplement (Thermo Fisher Scientific, cat. 35050061), 0.1 mg/mL primocin (InvivoGen, San Diego, CA, cat. ant-pm-2), 10% defined fetal bovine serum, heat inactivated (HyClone Laboratories Inc., Logan, UT, cat. SH30070.03HI), 50% L-WRN conditioned media (ATCC, cat. CRL-3276), 1.25 mM N-Acetyl-L-cysteine (Sigma-Aldrich, cat. A9165), 10 mM nicotinamide (Sigma-Aldrich, cat. N0636), 1X B-27 supplement (Thermo Fisher Scientific, cat. 17504044), 1X N-2 supplement (Thermo Fisher Scientific, cat. 17502048), and 10 microM Y-27632 dihydrochloride (Tocris Bioscience, Bristol, United Kingdom, cat. 1254). The 624824-186-R-J2-PDC line was cultured in 6C/Colon 1B media, which includes all 6A media components plus 50 ng/mL human EGF recombinant protein (Thermo Fisher Scientific, cat. PHG0311). […]

[1] = second compound 0.0316 µM, first compound 0.0316 µM
[2] = second compound 0.0316 µM, first compound 0.1 µM
[3] = second compound 0.0316 µM, first compound 0.316 µM
[4] = second compound 0.0316 µM, first compound 1 µM
[5] = second compound 0.0316 µM, first compound 3.16 µM
[6] = second compound 0.0316 µM, first compound 10 µM
[7] = second compound 0.1 µM, first compound 0.0316 µM
[8] = second compound 0.1 µM, first compound 0.1 µM
[9] = second compound 0.1 µM, first compound 0.316 µM
[10] = second compound 0.1 µM, first compound 1 µM
[11] = second compound 0.1 µM, first compound 3.16 µM
[12] = second compound 0.1 µM, first compound 10 µM
[13] = second compound 0.316 µM, first compound 0.0316 µM
[14] = second compound 0.316 µM, first compound 0.1 µM
[15] = second compound 0.316 µM, first compound 0.316 µM
[16] = second compound 0.316 µM, first compound 1 µM
[17] = second compound 0.316 µM, first compound 3.16 µM
[18] = second compound 0.316 µM, first compound 10 µM
[19] = second compound 1 µM, first compound 0.0316 µM
[20] = second compound 1 µM, first compound 0.1 µM
[21] = second compound 1 µM, first compound 0.316 µM
[22] = second compound 1 µM, first compound 1 µM
[23] = second compound 1 µM, first compound 3.16 µM
[24] = second compound 1 µM, first compound 10 µM
[25] = second compound 3.16 µM, first compound 0.0316 µM
[26] = second compound 3.16 µM, first compound 0.1 µM
[27] = second compound 3.16 µM, first compound 0.316 µM
[28] = second compound 3.16 µM, first compound 1 µM
[29] = second compound 3.16 µM, first compound 3.16 µM
[30] = second compound 3.16 µM, first compound 10 µM
[31] = second compound 10 µM, first compound 0.0316 µM
[32] = second compound 10 µM, first compound 0.1 µM
[33] = second compound 10 µM, first compound 0.316 µM
[34] = second compound 10 µM, first compound 1 µM
[35] = second compound 10 µM, first compound 3.16 µM
[36] = second compound 10 µM, first compound 10 µM
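Note: spheroids exposed to compounds for seven days before read-out.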

C#Cc1c(F)ccc2cc(O)cc(-c3ncc4c(N5CC6CCC(C5)N6)nc(OCC56CCCN5CC(F)C6)nc4c3F)c12 (stereo not drawn) + Cc1nc(NC(=O)N2CCCC2C(N)=O)sc1-c1ccnc(C(C)(C)C(F)(F)F)c1
IC50 (second compound 0.0316 µM): > 10000 nM | IC50 (second compound 0.1 µM): > 10000 nM | IC50 (second compound 0.316 µM): 1350 nM | IC50 (second compound 1 µM): < 31.6 nM | IC50 (second compound 3.16 µM): < 31.6 nM | IC50 (second compound 10 µM): < 31.6 nM | viability, T/C [1]: 97.6% | viability, T/C [2]: 102% | viability, T/C [3]: 92.3% | viability, T/C [4]: 82.2% | viability, T/C [5]: 71.3% | viability, T/C [6]: 67.9% | viability, T/C [7]: 79.7% | viability, T/C [8]: 81.7% | viability, T/C [9]: 92.8% | viability, T/C [10]: 74.6% | viability, T/C [11]: 61.9% | viability, T/C [12]: 51.9% | viability, T/C [13]: 64.7% | viability, T/C [14]: 59.1% | viability, T/C [15]: 57% | viability, T/C [16]: 49.4% | viability, T/C [17]: 48.9% | viability, T/C [18]: 38.2% | viability, T/C [19]: 43.8% | viability, T/C [20]: 42.3% | viability, T/C [21]: 39% | viability, T/C [22]: 34.7% | viability, T/C [23]: 28.3% | viability, T/C [24]: 21.6% | viability, T/C [25]: 25.2% | viability, T/C [26]: 23.8% | viability, T/C [27]: 22.5% | viability, T/C [28]: 17.2% | viability, T/C [29]: 12.3% | viability, T/C [30]: 10.1% | viability, T/C [31]: 10.3% | viability, T/C [32]: 10% | viability, T/C [33]: 8.35% | viability, T/C [34]: 7.39% | viability, T/C [35]: 6.74% | viability, T/C [36]: 4.92%

C#Cc1c(F)ccc2cc(O)cc(-c3ncc4c(N5CC6CCC(C5)N6)nc(OCC56CCCN5CC(F)C6)nc4c3F)c12 (stereo not drawn) + CC(Nc1ncnc2nc[nH]c12)c1cc2cccc(Cl)c2c(=O)n1-c1ccccc1
IC50 (second compound 0.0316 µM): > 10000 nM | IC50 (second compound 0.1 µM): > 10000 nM | IC50 (second compound 0.316 µM): > 10000 nM | IC50 (second compound 1 µM): > 10000 nM | IC50 (second compound 3.16 µM): 6340 nM | IC50 (second compound 10 µM): 1800 nM | viability, T/C [1]: 90.6% | viability, T/C [2]: 91.9% | viability, T/C [3]: 105% | viability, T/C [4]: 97.1% | viability, T/C [5]: 91.3% | viability, T/C [6]: 67.2% | viability, T/C [7]: 95.2% | viability, T/C [8]: 98.3% | viability, T/C [9]: 99.9% | viability, T/C [10]: 104% | viability, T/C [11]: 80.2% | viability, T/C [12]: 70.8% | viability, T/C [13]: 94% | viability, T/C [14]: 95.2% | viability, T/C [15]: 90.5% | viability, T/C [16]: 82.2% | viability, T/C [17]: 75.2% | viability, T/C [18]: 67.8% | viability, T/C [19]: 96.2% | viability, T/C [20]: 83.5% | viability, T/C [21]: 84.7% | viability, T/C [22]: 86.9% | viability, T/C [23]: 80% | viability, T/C [24]: 57.2% | viability, T/C [25]: 87.9% | viability, T/C [26]: 79.5% | viability, T/C [27]: 76% | viability, T/C [28]: 74.3% | viability, T/C [29]: 60.3% | viability, T/C [30]: 42.6% | viability, T/C [31]: 55.8% | viability, T/C [32]: 65.4% | viability, T/C [33]: 51.7% | viability, T/C [34]: 57.3% | viability, T/C [35]: 43.3% | viability, T/C [36]: 31.2%

Cn1nccc1Nc1nccc(-c2ccn(C(CO)c3ccc(Cl)c(F)c3)c(=O)c2)n1 (stereo not drawn) + CC(Nc1ncnc2nc[nH]c12)c1cc2cccc(Cl)c2c(=O)n1-c1ccccc1
IC50 (second compound 0.0316 µM): > 10000 nM | IC50 (second compound 0.1 µM): > 10000 nM | IC50 (second compound 0.316 µM): > 10000 nM | IC50 (second compound 1 µM): > 10000 nM | IC50 (second compound 3.16 µM): > 10000 nM | IC50 (second compound 10 µM): > 10000 nM | viability, T/C [1]: 90.7% | viability, T/C [2]: 100% | viability, T/C [3]: 92% | viability, T/C [4]: 102% | viability, T/C [5]: 88.3% | viability, T/C [6]: 80.1% | viability, T/C [7]: 94.3% | viability, T/C [8]: 90.6% | viability, T/C [9]: 91% | viability, T/C [10]: 90.8% | viability, T/C [11]: 88% | viability, T/C [12]: 66% | viability, T/C [13]: 98.2% | viability, T/C [14]: 97.2% | viability, T/C [15]: 91.6% | viability, T/C [16]: 83.8% | viability, T/C [17]: 75.6% | viability, T/C [18]: 73.6% | viability, T/C [19]: 102% | viability, T/C [20]: 76.9% | viability, T/C [21]: 95.9% | viability, T/C [22]: 86.1% | viability, T/C [23]: 81.4% | viability, T/C [24]: 82.4% | viability, T/C [25]: 74.6% | viability, T/C [26]: 69.9% | viability, T/C [27]: 70.7% | viability, T/C [28]: 76.4% | viability, T/C [29]: 68.8% | viability, T/C [30]: 77.3% | viability, T/C [31]: 53.7% | viability, T/C [32]: 52.3% | viability, T/C [33]: 57.4% | viability, T/C [34]: 51.6% | viability, T/C [35]: 51.1% | viability, T/C [36]: 56.9%

CC(C)NCC(C(=O)N1CCN(c2ncnc3c2C(C)CC3O)CC1)c1ccc(Cl)cc1 (stereo not drawn) + CC(Nc1ncnc2nc[nH]c12)c1cc2cccc(Cl)c2c(=O)n1-c1ccccc1
IC50 (second compound 0.0316 µM): 952 nM | IC50 (second compound 0.1 µM): 1010 nM | IC50 (second compound 0.316 µM): 922 nM | IC50 (second compound 1 µM): 1050 nM | IC50 (second compound 3.16 µM): 873 nM | IC50 (second compound 10 µM): 393 nM | viability, T/C [1]: 94.7% | viability, T/C [2]: 99.8% | viability, T/C [3]: 77.9% | viability, T/C [4]: 49.6% | viability, T/C [5]: 22.6% | viability, T/C [6]: 14.1% | viability, T/C [7]: 100% | viability, T/C [8]: 104% | viability, T/C [9]: 75.8% | viability, T/C [10]: 52.5% | viability, T/C [11]: 24.3% | viability, T/C [12]: 14.3% | viability, T/C [13]: 111% | viability, T/C [14]: 98.1% | viability, T/C [15]: 82% | viability, T/C [16]: 47.9% | viability, T/C [17]: 23.1% | viability, T/C [18]: 17.1% | viability, T/C [19]: 104% | viability, T/C [20]: 82.9% | viability, T/C [21]: 73.5% | viability, T/C [22]: 53.9% | viability, T/C [23]: 26.2% | viability, T/C [24]: 13.4% | viability, T/C [25]: 79.7% | viability, T/C [26]: 79.1% | viability, T/C [27]: 72.9% | viability, T/C [28]: 45.7% | viability, T/C [29]: 23.6% | viability, T/C [30]: 12.7% | viability, T/C [31]: 61.1% | viability, T/C [32]: 58.3% | viability, T/C [33]: 51.7% | viability, T/C [34]: 40% | viability, T/C [35]: 20.1% | viability, T/C [36]: 9.46%
